As usually defined, the IC50 is the concentration that gives 50% inhibition.

The structures appear in SMILES notation. Where a name gives a salt, the structure may show the parent alone.

T1 sequence (Q7Z2W7 whole entry): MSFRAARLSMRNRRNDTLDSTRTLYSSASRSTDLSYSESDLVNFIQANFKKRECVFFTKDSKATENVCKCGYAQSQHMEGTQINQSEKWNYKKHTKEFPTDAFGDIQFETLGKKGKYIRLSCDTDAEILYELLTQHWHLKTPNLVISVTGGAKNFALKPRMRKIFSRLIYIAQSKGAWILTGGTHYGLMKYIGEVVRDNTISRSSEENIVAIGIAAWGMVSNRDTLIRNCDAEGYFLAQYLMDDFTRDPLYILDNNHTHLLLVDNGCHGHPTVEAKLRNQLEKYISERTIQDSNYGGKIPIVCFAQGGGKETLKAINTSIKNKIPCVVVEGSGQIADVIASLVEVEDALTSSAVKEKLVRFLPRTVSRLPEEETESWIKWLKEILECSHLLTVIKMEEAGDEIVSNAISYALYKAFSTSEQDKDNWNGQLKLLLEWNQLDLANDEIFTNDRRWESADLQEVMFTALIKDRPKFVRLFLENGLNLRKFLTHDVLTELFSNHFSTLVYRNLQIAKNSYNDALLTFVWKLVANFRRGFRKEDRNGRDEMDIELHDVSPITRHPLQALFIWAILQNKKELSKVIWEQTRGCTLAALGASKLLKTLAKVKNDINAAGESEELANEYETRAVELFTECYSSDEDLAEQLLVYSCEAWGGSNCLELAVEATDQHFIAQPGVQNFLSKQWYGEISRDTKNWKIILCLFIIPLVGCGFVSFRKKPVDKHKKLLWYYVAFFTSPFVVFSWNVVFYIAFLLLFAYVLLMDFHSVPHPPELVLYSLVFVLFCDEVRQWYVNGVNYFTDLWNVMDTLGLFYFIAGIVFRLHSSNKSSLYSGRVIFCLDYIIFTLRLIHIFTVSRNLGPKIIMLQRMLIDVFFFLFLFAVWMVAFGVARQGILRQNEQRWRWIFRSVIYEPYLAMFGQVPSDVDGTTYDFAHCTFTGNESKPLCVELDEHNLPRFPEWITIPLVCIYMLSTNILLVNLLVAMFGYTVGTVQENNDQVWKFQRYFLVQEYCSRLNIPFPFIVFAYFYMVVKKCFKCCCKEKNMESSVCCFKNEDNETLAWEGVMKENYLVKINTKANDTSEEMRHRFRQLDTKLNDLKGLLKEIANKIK

This assay addresses T1, human TRPM8 (Homo sapiens, UniProt Q7Z2W7).
T1 construct: expressed in transfected cells; host or cells: Chinese hamster ovary (CHO) cells, T-REx tetracycline-inducible expression system (Invitrogen); co-transfected with pcDNA3.1 aequorin
As to the kind of experiment: Luminescence readout assay for measuring intracellular calcium (aequorin, CHO cells expressing human TRPM8; icilin, L-menthol or cold activation). Particulars: CHO cells expressing human TRPM8, icilin activation (1 μM), aequorin luminescence; read-out: hTRPM8 IC50. In kind it is cell-based. Summed up:
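Activation was by 1 μM icilin, 100 μM L-menthol (test compound 2.5 min ahead) or cold buffer below 10° C (compound 1 min ahead). Calcium rise measured as aequorin luminescence in CHO cells with tetracycline-inducible human TRPM8.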
Regarding `O=C(N[C@]1(c2ccc(OC(F)(F)F)cc2)CCOc2cccnc21)c1ccc2ncccc2c1` [Example 253, (S)-N-(4-(4-(trifluoromethoxy)phenyl)-3,4-dihydro-2H-pyrano[3,2-b]pyridin-4-yl)quinoline-6-carboxamide formate], the half-inhibitory concentration (IC50) was determined as 0.004 µM.
Consider `O=C(N[C@]1(c2ccc(C(F)(F)F)cc2)CCOc2cccnc21)c1cc(F)c(O)c(F)c1` [Example 205, (S)-3,5-difluoro-4-hydroxy-N-(4-(4-(trifluoromethyl)phenyl)-3,4-dihydro-2H-pyrano[3,2-b]pyridin-4-yl) benzamide], for which the IC50 was 0.004 µM.
For the molecule `CNC(=O)c1ccc(C(=O)N[C@]2(c3ccc(OC(F)(F)F)c(F)c3)CCOc3cccnc32)cn1` [Example 63, (S)-N5-(4-(3-fluoro-4-(trifluoromethoxy)phenyl)-3,4-dihydro-2H-pyrano[3,2-b]pyridin-4-yl)-N2-methylpyridine-2,5-dicarboxamide], the IC50 is 0.019 µM.
Under `COC(=O)c1ccc(C(=O)N[C@]2(c3ccc(OC(F)(F)F)c(F)c3)CCOc3cccnc32)n1C` [Example 305, (S)-methyl 5-((4-(3-fluoro-4-(trifluoromethoxy)phenyl)-3,4-dihydro-2H-pyrano[3,2-b]pyridin-4-yl)carbamoyl)-1-methyl-1H-pyrrole-2-carboxylate] stands 0.015 µM; under `O=C(N[C@]1(c2ccc(C(F)(F)F)c(F)c2)CCOc2cccnc21)c1ccccc1` (single isomer, unassigned) [Example 19], 0.012 µM; under `CS(=O)(=O)Nc1ccc(C(=O)N[C@]2(c3ccc(OC(F)(F)F)c(F)c3)CCOc3cccnc32)nc1` [Example 65, (S)—N-(4-(3-fluoro-4-(trifluoromethoxy)phenyl)-3,4-dihydro-2H-pyrano[3,2-b]pyridin-4-yl)-5-(methylsulfonamido)picolinamide], 0.012 µM.
For the molecule `O=C(N[C@]1(c2ccc(-c3ccc(F)cc3)cc2)CCOc2cccnc21)c1ccc(F)cc1` [Example 114, (S)-4-fluoro-N-(4-(4′-fluoro-[1,1′-biphenyl]-4-yl)-3,4-dihydro-2H-pyrano[3,2-b]pyridin-4-yl)benzamide], the IC50 was 0.05 µM.
With `O=C(N[C@]1(c2ccc(C(F)(F)F)cc2)CCOc2cccnc21)c1cncs1` [Example 39, (S)-N-(4-(4-(trifluoromethyl)phenyl)-3,4-dihydro-2H-pyrano[3,2-b]pyridin-4-yl)thiazole-5-carboxamide], the IC50 was found to be 0.269 µM.
For `O=C(N[C@]1(c2ccc(-c3cccc(N4CCOCC4)c3)cc2)CCOc2cccnc21)c1ccc(F)cc1` [Example 142, (S)-4-fluoro-N-(4-(3′-morpholino-[1,1′-biphenyl]-4-yl)-3,4-dihydro-2H-pyrano[3,2-b]pyridin-4-yl)benzamide], the IC50 amounted to 0.336 µM.
Regarding `Cn1ncc2ccc(C(=O)N[C@]3(c4ccc(OC(F)(F)F)cc4)CCOc4cccnc43)cc21` [Example 263, (S)-1-methyl-N-(4-(4-(trifluoromethoxy)phenyl)-3,4-dihydro-2H-pyrano[3,2-b]pyridin-4-yl)-1H-indazole-6-carboxamide formate], the IC50 turned out to be 0.095 µM.
As to `CC(C)(C)OC(=O)N[C@]1(c2ccc(OC(F)(F)F)c(F)c2)CCOc2cccnc21` [Example 78, (S)-tert-butyl (4-(3-fluoro-4-(trifluoromethoxy)phenyl)-3,4-dihydro-2H-pyrano[3,2-b]pyridin-4-yl)carbamate], the IC50 was determined as 0.058 µM.
Regarding `O=C(N[C@]1(c2ccc(OC(F)(F)F)c(F)c2)CCOc2cccnc21)c1ccc(C(=O)O)c(O)c1` [Example 298, (S)-4-((4-(3-fluoro-4-(trifluoromethoxy)phenyl)-3,4-dihydro-2H-pyrano[3,2-b]pyridin-4-yl)carbamoyl)-2-hydroxybenzoic acid], the IC50 was 0.023 µM.
In the case of `O=C(N[C@]1(c2ccc(OC(F)(F)F)cc2)CCOc2cccnc21)c1cc2cccnc2[nH]1` [Example 216, (S)-N-(4-(4-(trifluoromethoxy)phenyl)-3,4-dihydro-2H-pyrano[3,2-b]pyridin-4-yl)-1H-pyrrolo[2,3-b] pyridine-2-carboxamide formate], the IC50 amounted to 0.27 µM.
As for `CS(=O)(=O)c1ccccc1-c1ccc([C@@]2(NC(=O)c3ccc(F)cc3)CCOc3cccnc32)cc1` [Example 144, (S)-4-fluoro-N-(4-(2′-(methylsulfonyl)-[1,1′-biphenyl]-4-yl)-3,4-dihydro-2H-pyrano[3,2-b]pyridin-4-yl)benzamide], the IC50 turned out to be 1.92 µM.
With `O=C(N[C@]1(c2ccc(-c3cc(F)ccc3CO)cc2)CCOc2cccnc21)c1ccc(F)cc1` [Example 140, (S)-4-fluoro-N-(4-(5′-fluoro-2′-(hydroxymethyl)-[1,1′-biphenyl]-4-yl)-3,4-dihydro-2H-pyrano[3,2-b]pyridin-4-yl)benzamide], the IC50 was found to be 0.34 µM.
Under `O=C(N[C@]1(c2ccc(OC(F)(F)F)c(F)c2)CCOc2cccnc21)c1ccc(Br)cn1` [Example 206, (S)-5-bromo-N-(4-(3-fluoro-4-(trifluoromethoxy)phenyl)-3,4-dihydro-2H-pyrano[3,2-b]pyridin-4-yl) picolinamide] stands 0.013 µM; under `O=C(N[C@]1(c2ccc(OC(F)(F)F)cc2)CCOc2cccnc21)c1cc2ccccc2o1` [Example 236, (S)-N-(4-(4-(trifluoromethoxy)phenyl)-3,4-dihydro-2H-pyrano[3,2-b]pyridin-4-yl)benzofuran-2-carboxamide formate], 0.0665 µM.
Under `O=C(N[C@]1(c2ccc(OC(F)(F)F)cc2)CCOc2cccnc21)c1cnn2cccnc12` [Example 244, (S)-N-(4-(4-(trifluoromethoxy)phenyl)-3,4-dihydro-2H-pyrano[3,2-b]pyridin-4-yl)pyrazolo[1,5-a] pyrimidine-3-carboxamide formate] stands 0.0521 µM.
`O=C(N[C@]1(c2ccc(OC(F)(F)F)c(F)c2)CCOc2cccnc21)c1ccco1` [Example 308, (S)—N-(4-(3-fluoro-4-(trifluoromethoxy)phenyl)-3,4-dihydro-2H-pyrano[3,2-b]pyridin-4-yl)furan-2-carboxamide]: the IC50 is 0.011 µM.
Under `O=C(N[C@]1(c2ccc(-c3ccccc3)cc2)CCOc2cccnc21)c1ccc(F)cc1` [Example 113, (S)—N-(4-([1,1′-biphenyl]-4-yl)-3,4-dihydro-2H-pyrano[3,2-b]pyridin-4-yl)-4-fluorobenzamide] stands 0.053 µM; under `O=C(N[C@]1(c2ccc(OC(F)(F)F)c(F)c2)CCOc2cccnc21)c1ccc(O)cn1` [Example 51, (S)-N-(4-(3-fluoro-4-(trifluoromethoxy)phenyl)-3,4-dihydro-2H-pyrano[3,2-b]pyridin-4-yl)-5-hydroxypicolinamide], 0.005 µM.
To `COc1ncc(-c2ccc([C@@]3(NC(=O)c4ccc(F)cc4)CCOc4cccnc43)cc2)c(OC)n1` [Example 149, (S)-N-(4-(4-(2,4-dimethoxypyrimidin-5-yl)phenyl)-3,4-dihydro-2H-pyrano[3,2-b]pyridin-4-yl)-4-fluorobenzamide] belongs 0.299 µM; to `CCOC(=O)c1nc(C(=O)N[C@]2(c3ccc(OC(F)(F)F)c(F)c3)CCOc3cccnc32)cs1` [Example 279, (S)-ethyl 4-((4-(3-fluoro-4-(trifluoromethoxy)phenyl)-3,4-dihydro-2H-pyrano[3,2-b]pyridin-4-yl)carbamoyl) thiazole-2-carboxylate], 0.053 µM; to `COc1ccc2cc(C(=O)N[C@]3(c4ccc(OC(F)(F)F)cc4)CCOc4cccnc43)cnc2c1` [Example 225, (S)-7-methoxy-N-(4-(4-(trifluoromethoxy)phenyl)-3,4-dihydro-2H-pyrano[3,2-b]pyridin-4-yl)quinoline-3-carboxamide formate], 0.012 µM.
To `O=C(N[C@]1(c2ccc(OC(F)(F)F)cc2)CCOc2cccnc21)c1cscn1` [Example 231, (S)-N-(4-(4-(trifluoromethoxy)phenyl)-3,4-dihydro-2H-pyrano[3,2-b]pyridin-4-yl)thiazole-4-carboxamide formate] belongs 0.0452 µM.
As for `O=C(NC1(c2ccccc2)CCOc2cccnc21)c1ccccc1` (stereo not shown) [Example 12, N-(4-phenyl-3,4-dihydro-2H-pyrano[3,2-b]pyridin-4-yl)benzamide], the IC50 is 2.07 µM.
In the case of `O=C(N[C@]1(c2ccc(C(F)(F)F)cc2)CCOc2cccnc21)c1cccnc1` [Example 48, (S)-N-(4-(4-(trifluoromethyl)phenyl)-3,4-dihydro-2H-pyrano[3,2-b]pyridin-4-yl)nicotinamide], the IC50 is 0.481 µM.
To `O=C(O)c1ccc(C(=O)N[C@]2(c3ccc(OC(F)(F)F)c(F)c3)CCOc3cccnc32)s1` [Example 336, (S)-5-((4-(3-fluoro-4-(trifluoromethoxy)phenyl)-3,4-dihydro-2H-pyrano[3,2-b]pyridin-4-yl)carbamoyl) thiophene-2-carboxylic acid 2,2,2-trifluoroacetate] belongs 0.086 µM; to `O=C(N[C@]1(c2ccc(OC(F)(F)F)cc2)CCOc2cccnc21)c1cc2ccccc2cn1` [Example 248, (S)-N-(4-(4-(trifluoromethoxy)phenyl)-3,4-dihydro-2H-pyrano[3,2-b]pyridin-4-yl)isoquinoline-3-carboxamide formate], 0.024 µM; to `O=C(N[C@]1(c2ccc(OC(F)(F)F)c(F)c2)CCOc2cccnc21)c1ccc(Br)o1` [Example 208, (S)-5-bromo-N-(4-(3-fluoro-4-(trifluoromethoxy)phenyl)-3,4-dihydro-2H-pyrano[3,2-b]pyridin-4-yl)furan-2-carboxamide], 0.011 µM.
Regarding `O=C1CCc2cc(C(=O)N[C@]3(c4ccc(C(F)(F)F)cc4)CCOc4cccnc43)ccc2N1` [Example 33, (S)-2-oxo-N-(4-(4-(trifluoromethyl)phenyl)-3,4-dihydro-2H-pyrano[3,2-b]pyridin-4-yl)-1,2,3,4-tetrahydroquinoline-6-carboxamide], the IC50 turned out to be 0.005 µM.

These data come from patent publication US20150031668A1, “CHROMAN DERIVATIVES AS TRPM8 INHIBITORS” (AMGEN INC., priority 2013, published 2015).
